Results reported in ChEMBL document CHEMBL4477215, “Specific Correction of Alternative Survival Motor Neuron 2 Splicing by Small Molecules: Discovery of a Potential Novel Medicine To Treat Spinal Muscular Atrophy” (J Med Chem, 2016).
Active and inactive are the calls of the source. The rule behind the calls is not given here.

Legend:
[1] = tested on: Mus musculus; test: Increase in body weight of delta7 mouse harboring FVB.Cg-Tg(SMN2 delta7)4299Ahmb Tg(SMN2)89Ahmb Smn1tm1Msd/J at 0.03 to 0.1 mg/kg, ip qd administered from PND3 to PND23 followed by 0.03 to 0.1 mg/kg/day via oral gavage from PND24 to PND65; assay type: functional, organism-based
[2] = tested on: Mus musculus; test: (§1) Inhibition of mRNA splicing of SMN2 exon 7 in neonatal delta7 mouse harboring FVB.Cg-Tg(SMN2 delta7)4299Ahmb Tg(SMN2)-89Ahmb Smn1tm1Msd/J assessed as increase in SMN protein level in quadriceps at 0.1 mg/kg, ip qd administered from postnatal day 3 to postnatal day 9 measured 1 hr after last dose by HTRF assay relative to control; assay type: functional; design: scale not given: the % may be the effect or the level left
[3] = Unbound AUC in plasma of wild type mouse at 1 mg/kg, ip measured on postnatal day 10; assay type: ADME, organism-based; details: in vivo
[4] = AUC in plasma of wild type mouse at 1 mg/kg, ip measured on postnatal day 10; assay type: ADME, organism-based
[5] = tested on: Mus musculus; test: Increase in survival of delta7 mouse harboring FVB.Cg-Tg(SMN2 delta7)4299Ahmb Tg(SMN2)89Ahmb Smn1tm1Msd/J at 0.03 to 0.1 mg/kg, ip qd administered from PND3 to PND23 followed by 0.03 to 0.1 mg/kg/day via oral gavage from PND24 to PND65; assay type: functional, organism-based
[6] = species: Homo sapiens; test: Inhibition of mRNA splicing of SMN2 exon 7 in fibroblasts derived from human SMA type 1/2/3 patient assessed as increase in SMN protein level after 48 hrs by HTRF assay
[7] = tested on: Mus musculus; test: as §1, with “brain” for “quadriceps”; assay type: functional; design: scale not given: the % may be the effect or the level left
[8] = species: Homo sapiens; test: Inhibition of mRNA splicing of SMN2 exon 7 in GM03813 fibroblasts derived from human SMA type 1 patient after 24 hrs by RT-qPCR analysis
[9] = tested on: Mus musculus; test: Increase in survival of delta7 mouse harboring FVB.Cg-Tg(SMN2 delta7)4299Ahmb Tg(SMN2)89Ahmb Smn1tm1Msd/J assessed as mouse survival beyond PND60 at 3 to 10 mg/kg, ip qd administered from PND3 to PND23 followed by 3 to 10 mg/kg/day via oral gavage from PND24 to PND65; assay type: functional
[10] = AUC in plasma of wild type mouse at 3 mg/kg, ip measured on postnatal day 10; assay type: ADME, organism-based
[11] = tested on: Mus musculus; test: Increase in body weight of delta7 mouse harboring FVB.Cg-Tg(SMN2 delta7)4299Ahmb Tg(SMN2)89Ahmb Smn1tm1Msd/J assessed as mouse body weight beyond PND60 at 3 to 10 mg/kg, ip qd administered from PND3 to PND23 followed by 3 to 10 mg/kg/day via oral gavage from PND24 to PND65; assay type: functional, organism-based
[12] = tested on: Mus musculus; test: as §1, with “brain” for “quadriceps”, “3” for “0.1”; assay type: functional; design: scale not given: the % may be the effect or the level left
[13] = tested on: Mus musculus; test: Increase in survival of ip dosed delta7 mouse harboring FVB.Cg-Tg(SMN2 delta7)4299Ahmb Tg(SMN2)89Ahmb Smn1tm1Msd/J administered intraperitoneally once daily from PND3 to PND23 followed by oral gavage dosing qd from PND24 to PND65; assay type: functional, organism-based
[14] = tested on: Mus musculus; test: as §1, with “3” for “0.1”; assay type: functional; design: scale not given: the % may be the effect or the level left
[15] = tested on: Mus musculus; test: Increase in survival of delta7 mouse harboring FVB.Cg-Tg(SMN2 delta7)4299Ahmb Tg(SMN2)89Ahmb Smn1tm1Msd/J assessed as mouse survival beyond PND50 at 1 to 3 mg/kg, ip qd administered from PND3 to PND23 followed by 1 to 3 mg/kg/day via oral gavage from PND24 to PND65; assay type: functional
[16] = tested on: Mus musculus; test: Increase in body weight of delta7 mouse harboring FVB.Cg-Tg(SMN2 delta7)4299Ahmb Tg(SMN2)89Ahmb Smn1tm1Msd/J assessed as mouse body weight beyond PND50 at 1 to 3 mg/kg, ip qd administered from PND3 to PND23 followed by 1 to 3 mg/kg/day via oral gavage from PND24 to PND65; assay type: functional, organism-based
[17] = Unbound AUC in plasma of wild type mouse at 3 mg/kg, ip measured on postnatal day 10; assay type: ADME, organism-based; details: in vivo
[18] = tested on: Mus musculus; test: Inhibition of mRNA splicing of human SMN2 exon 7 in transgenic SMA C/C-allele mouse brain assessed as increase in SMN protein level administered orally qd for 10 days; assay type: functional, organism-based
[19] = species: Homo sapiens; test: Inhibition of mRNA splicing of SMN2 exon 7 in spinal motor neurons derived from human SMA type 1/2 patient induced pluripotent stem cells assessed as increase in SMN protein level at 0.01 to 1 uM by HTRF assay; design: scale not given: the % may be the effect or the level left
[20] = species: Homo sapiens; test: Inhibition of mRNA splicing of SMN2 exon 7 in fibroblasts derived from human SMA type 1 patient assessed as increase in SMN protein level at 0.01 to 10 uM by HTRF assay
[21] = tested on: Mus musculus; test: Inhibition of mRNA splicing of human SMN2 exon 7 in transgenic SMA C/C-allele mouse brain administered orally qd for 10 days; assay type: functional, organism-based

Structure (SMILES)	EC1.5 [6] [nM]	EC1.5 [8] [nM]	Survival [9]	AUC [10] [ng·h/mL]	Activity [11]	Activity [12] [%]	Activity [13]	Activity [14] [%]	Survival [15]	Activity [16]	fAUC [17] [ng·h/mL]	further results
Cc1cn2cc(-c3cc(=O)n4cc(N5CCN(C)CC5)ccc4n3)cc(F)c2n1	40	32	–	–	–	–	–	–	–	–	–	Activity [1]: Active; Activity [2]: 107%; fAUC [3]: 721 ng·h/mL; AUC [4]: 4300 ng·h/mL; Activity [5]: Active; Activity [7]: 72%
Cc1cn2cc(-c3cc(=O)n4cc(N5CCN(C)CC5)ccc4n3)cc(C)c2n1	14 to 55	7	80 - 90%	1300	Active	162	Dose-dependent effect	130	80 - 90%	Active	208	–
CCc1nc(C)cn2nc(-c3cc(=O)n4cc(C5CCN(C)CC5)cc(C)c4n3)cc12	87	23	80 - 90%	5900	Active	135	Dose-dependent effect	160	80 - 90%	Active	118	inhibition [18]: Dose-dependent effect; Activity [19]: 60 to 80%; inhibition [20]: Active; inhibition [21]: Dose-dependent effect
